In patent US8563514B2, “Peptides and pharmaceutical compositions for treating connective tissue” (Metamorefix, priority 2007, dated 2013):
“Also recorded” adds a separate entry of the source.

What was measured:
[1] = test system: human foreskin fibrobalsts (FF1); test: Cell attachment assay in monolayers (peptide-coated Sepharose beads), FF1; format: cell-based; conditions: for cell binding activity at the lower dose (words): 6 mg peptide/ml compared with 12 mg/ml; for activity in comparison with the positive control PreC-gamma: FIG. 3b, cell type not stated; for time to saturated attachment: Conclusions b109, concentration and cell type not stated; for Nomarsky optics microscopy of peptide coated beads attached to FF1 (observation): 3 days to 3 weeks of incubation
Experimental: (§1) 100 mg of dried CNBr-Sepharose Beads (yields 350 μl of swollen Sepharose Beads—gel) was introduced into a disposable polystyrene mini-column (FIG. 1), appropriate for the preparation of a 0.5-2 ml gel filtration column (Pierce, Prod #29920). The lower part of the columns is blocked by a thick glass filter and a stopper.
(§2) 3-4 ml total volume of HCl solution (1 mM) was added to the column, and the liquid was forced to flow under vacuum pressure through the gel. This process was repeated 5 times. The final aliquot of HCl was aspirated until cracks appeared in the gel cake. 2-3 ml aliquots of coupling buffer were immediately added to the washed beads and aspirated. This step was repeated 4-5 times. The high pH hydrolyzes and opens the active groups.
(§3) A peptide solution in coupling buffer prepared as above was immediately added to the activated SEPHAROSE BEADS Sepharose beads were used to fixate the peptides for all in-vitro assays in the column to a final binding of 6 mg peptide per ml SEPHAROSE BEADS gel. The column was closed and shaken overnight at 4° C. very gently to avoid mechanical breakage of SEPHAROSE BEADS. The bottom cap of the column was removed and the solution of ligand/buffer was collected as the Sepharose Beads settled on the filter. The OD280 of the collected buffer was checked to determine the concentration of uncoupled peptide. The gel was washed/aspirated with 5 volumes (˜2 ml) of coupling buffer and gently mixed. Any remaining active groups on the gel were blocked with blocking buffer for 2 hours at room temperature or overnight at 4° C. The Sepharose Beads gel with peptides was then washed by 2 cycles each of 5 gel volumes of: • a. 0.1 M Acetate buffer • b. Coupling buffer • c. Storing buffer: azide-coupling buffer: coupling buffer containing 0.1% NaN3 (final concentration)
(§4) The tested peptides (Table 1) were coupled to Sepharose Beads at two concentrations: 6 and 12 mg/ml Sepharose Beads. Sepharose Beads that underwent the coupling procedure without peptide addition (“naked Sepharose Beads”) served as a negative control (referred to herein as “Sepharose Beads—blank”). A cell binding assay was performed with 2 normal cell types: bovine aortal endothelial cells (BAEC) and human foreskin fibrobalsts (FF1). Sepharose Beads were added to 12 well culture plates with sub-confluent monolayer of the cultured cells (100-300 beads were added to each well). The fraction of Sepharose Beads attached to the monolayer was monitored at different times.

[2] = test system: bovine aortal endothelial cells (BAEC); test: Cell attachment assay in monolayers (peptide-coated Sepharose beads), BAEC; format: cell-based; conditions: for cell binding activity at the lower dose (words): BAEC monolayer, 6 mg peptide/ml compared with 12 mg/ml; for Nomarsky optics microscopy of peptide coated beads attached to BAEC (observation): 3 weeks of incubation; for overall activity at longer incubation times: microscopy, statement follows FF1 and BAEC paragraphs
Experimental: as §1, §2, §3, §4

[3] = test system: FF1; test: Toxicity assay for the peptides (MTS cell survival), FF1; format: cell-based, human
Experimental: (§5) A toxicity assay was done to determine the toxicity of the peptides tested to either one of the cell lines used. 15×10^3 cells (FF1 or BAEC) were seeded in 96 well plastic plates. After an overnight incubation, increasing concentrations of peptides in the range of 0.1-300 μg/ml were added to the wells. Cell survival was checked by the MTS assay after 2 and 5 days and normalized to the cell number of the controls (no peptide).

[4] = test system: FF1 in suspension; test: Cell attachment assay in cell suspensions (MTS assay); format: cell-based, human; conditions: followed over days
Excerpt: Attachment of FF1 in suspension to peptides bound to sepharose beads was followed using the MTS assay. The MTS assay uses tetrazolium, which is taken up by viable cells and converted into formazan, which has a light absorption peak at 492 nm. The light absorbance at 492 (OD492) is directly proportional to the number of the living cells attached to the beads. Calibration curves were used to transform the OD492 readings into cell number, […]

[5] = test system: BAEC; test: Toxicity assay for the peptides (MTS cell survival), BAEC; format: cell-based, bovine
Experimental: as §5

[6] = FF1, FIG. 3a, peptide concentration not given
[7] = FF1 monolayer, 6 mg peptide/ml Sepharose beads
[8] = high concentrations (>100 μg/ml), 5 days
[9] = very high concentrations (>100 μg/ml), prolonged exposure (5 days)

C-M-Fic-a-K: peptide having the sequence KGYKYSYKVSEMKFQRRMDGSVDFYRK (SEQ ID NO: 7) (listed as Homo sapiens)
rate / kinetics of cell binding compared with positive control PreC ([1]; FF1 monolayer, 6 mg peptide/ml): accelerated the kinetics of cell binding

C-M-Fic2K: peptide having the sequence KGYKYSYKGGWTVFQRRMDGSVDFYRK (SEQ ID NO: 6) (listed as Homo sapiens)
cell binding (extent reached) [1, 6]: 100% | kinetic profile of cell binding [1, 6]: good kinetic profile of cell binding (fast attachment)

C-Fic-a-K: peptide having the sequence KGYKYSYKVSEMKVRPAK (SEQ ID NO: 4) (listed as Homo sapiens)
cell binding (extent reached) [1, 7]: 100%

C-Fic: peptide having the sequence KGYNYSYKSEMKVRPA (SEQ ID NO: 1); subsequence of human ficolin (listed as Homo sapiens)
cell binding activity at the lower dose (words) [2]: completely looses reactivity | cell binding activity at the lower dose (words) ([2]; listed as C-fic): did not attach; also recorded: some activity | extent of cell binding ([2]; BAEC, 6 mg peptide/ml, after 96 hours of incubation): about 30% | extent of cell binding ([1]; FF1, 6 mg peptide/ml, after 96 hours of incubation): about 30% | cell binding activity at the lower dose (words) ([1]; FF1 monolayer): no reactivity | cell binding activity at the lower dose (words) ([1]; FF1 monolayer, listed as C-fic): did not attach; also recorded: looses its activity; also recorded: inactive | cell binding (extent reached) ([1]; FF1 monolayer, 12 mg peptide/ml, up to 150 hours): 100%

M-Fic-K: peptide having the sequence GGWTVFQRRMDGSVDFYRK (SEQ ID NO: 5) (listed as Homo sapiens)
activity in comparison with the positive control PreC-gamma ([1]; 6 mg peptide/ml): dramatic change in activity

C-M-Fic2: peptide having the sequence KGYKYSYKGGWTVFQRRMDGSVDFYR (SEQ ID NO: 8) (listed as Homo sapiens)
cell binding (extent reached) [1, 6]: 100% | kinetic profile of cell binding [1, 6]: good kinetic profile of cell binding (fast attachment)

PreC: positive control peptide KTRWYSMKKTTMKIIPFNR (SEQ ID NO: 10) (listed as Homo sapiens) [reference compound]
cell binding (extent reached) [1, 7]: 100%

C-M-Fic: peptide having the sequence KGYNYSYKVSEMKFQRRVDGSVDFYRK (SEQ ID NO: 3) (listed as Homo sapiens)
cell binding activity at the lower dose (words) [2]: slower rate at the lower concentration | Nomarsky optics microscopy of peptide coated beads attached to BAEC (observation) ([2]; BAEC): formation of small tubes | overall activity at longer incubation times [2]: also active | time to saturated attachment [1]: 72 h | Nomarsky optics microscopy of peptide coated beads attached to FF1 (observation) ([1]; FF1): aggregates of cells and beads formed | time to reach 100% / saturated cell binding ([1]; FF1 monolayer, 6 mg peptide/ml): 96 h | cell binding (extent reached) [1, 7]: 100% | cell binding activity at the lower dose (words) ([1]; FF1 monolayer): strongly affected by the decrease | cell binding activity at the lower dose (words) ([1]; FF1 monolayer, listed as C-M-fic): strongly affected by the lowerdose | time to reach 100% / saturated cell binding ([1]; FF1 monolayer, 6 mg peptide/ml, listed as C-M-fic): ≤ 96 h | rate of cell binding compared to the lower concentration ([1]; FF1 monolayer, 12 mg peptide/ml): slightly faster cell binding | time to reach 100% cell binding ([1]; FF1 monolayer, higher dose (12 mg/ml)): 20 h | cell survival, normalized to controls [3, 8]: about 50% | toxicity [3, 9]: some minor toxicity | attachment of FF1 cells in suspension to coated sepharose beads over time (words) ([4]; listed as C-M-fic): an increase in cell number is detected after the first day | attachment of FF1 cells in suspension to coated sepharose beads over time (words) ([4]; listed as CM-fic): stable for at least three days | cell survival, normalized to controls [5, 8]: about 50% | toxicity [5, 9]: some minor toxicity

M-Fic: peptide having the sequence GGWTVFQRRVDGSVDFYRK (SEQ ID NO: 2) (listed as Homo sapiens)
cell binding activity at the lower dose (words) [2]: slight decrease | Nomarsky optics microscopy of peptide coated beads attached to BAEC (observation) ([2]; BAEC): formation of small tubes | overall activity at longer incubation times [2]: highest activity | time to saturated attachment [1]: 72 h | Nomarsky optics microscopy of peptide coated beads attached to FF1 (observation) ([1]; FF1): aggregates of cells and beads formed | time to reach 100% / saturated cell binding ([1]; FF1 monolayer, 6 mg peptide/ml): ≤ 24 h | cell binding activity at the lower dose (words) ([1]; FF1 monolayer): retains its activity | cell binding activity at the lower dose (words) ([1]; FF1 monolayer, listed as M-fic): retain most of its activity | activity in comparison with the positive control PreC-gamma ([1]; 6 mg peptide/ml): initially inferior to the positive control
